Assay results taken from patent US20250186470A1, “Compositions and Methods Using Lactulose for Treating Disease” (THE UNIVERSITY OF CHICAGO, priority 2023, published 2025).

Assays:
[1] = test system: VRE (vancomycin resistant Enterococcus faecium, ATCC 700221); assay: VRE growth curves in B. longum conditioned media, SCFA- or lactulose-supplemented media; format: cell-based; conditions: 50 mM lactulose in media
Protocol: FIGS. 11A-11F: Bifidobacterium longum supernatant inhibits VRE growth in vitro. (A) Schematic of experimental design for VRE growth in B. longum conditioned media (CM). B. longum was grown in BHIS for 24-hours prior to collecting and filtering the supernatant. VRE growing at steady state was then diluted to a low density (OD600=0.05) prior to inoculating in various dilutions of B. longum conditioned media in fresh BHIS. (B) VRE growth curves in 100%, 50%, 12.5%, and 0% CM with the pH of the 4 concentrations of CM in BHIS shown in the right portion of this panel. […] (E) VRE was grown in minimal media containing either no additive (blue) or 50 mM lactulose, and OD600 was measured over time. (F) VRE was grown in BHIS with or without 50 mM lactulose, and OD600 was measured over time. […]
The Bifidobacteria longum strains MSK.11.12 and DFI.2.45 were previously derived from two distinct healthy donor stool samples and whole genome sequenced (BioSample ID: SAMN19731851 and SAMN22167409). […] All growth curves were obtained in anaerobic culture conditions at 37° C. on a BioTek EPOCH2 microplate reader with BioTek Gen 5 3.11 software. Growth curves were analyzed in GraphPad Prism Version 9.4.0. Lactulose concentrations in were measured using the EnzyChrom™ Lactulose Assay Kit (ELTL-100).

bacteremia = assay: Bacteremia in liver disease patients paired with fecal samples, logistic regression; format: in vivo, human
Description: FIGS. 13A-13E: Bifidobacteria expansion and associated metabolite production are associated with decreased incidence of bacteremia). (A) Flow diagram depicting number of samples and number of patients that were filtered out at each step of analysis for bacteremia. (B) Taxonomic relative abundance by shotgun metagenomics of stool samples paired to blood cultures is plotted in order of decreasing Bifidobacteria abundance from left to right. Underneath each stool sample is the clinical diagnosis associated with a given blood culture (bacteremia (red) or no bacteremia (green)). (C) Volcano plot of normalized metabolite concentrations. P-values were calculated using a two-tailed Wilcoxon rank sum test and are corrected for multiple comparisons using the Benjamini-Hochberg procedure. Values with log 2 fold-change >1 (corresponding to a 2-fold change with a p-value <0.05) were considered significant. (D and E) Quantitative levels for butyrate, propionate, lithocholic acid, and alloisolithocholic acid were compared from samples associated and not associated with SBP. Units for SCFA are mM, and units for BA derivatives are in μg/mL. Each point represents a single sample. Median and interquartile range are indicated by the horizontal line and box, respectively. […] Statistical comparisons between individual groups were analyzed using a two-tailed Wilcoxon rank sum test. […]

Enterococcus = assay: Fecal shotgun metagenomics of hospitalized liver disease patients stratified by lactulose exposure: Enterococcus abundance; format: in vivo, human; conditions: for Regression estimate, association with Enterococcus abundance: Table S1, factors lactulose, PPI, stool consistency, antibiotics
Bifidobacteria = assay: Fecal shotgun metagenomics of hospitalized liver disease patients stratified by lactulose exposure: Bifidobacteria abundance; format: in vivo, human; conditions: for Regression estimate, association with Bifidobacteria abundance: Table S1, factors lactulose, PPI, stool consistency, antibiotics
[2] = fecal samples from lactulose-treated patients
[3] = lactulose 10 days, B. longum colonized mice
[4] = lactulose treated patients, one sample per patient

In the case of `OC[C@H]1O[C@@H](O[C@@H]2[C@@H](CO)OC(O)(CO)[C@H]2O)[C@H](O)[C@@H](O)[C@H]1O` (mixture of isomers) [Lactulose, lactulose], the VRE growth [1] is reported as “modestly augments”, the “Samples with lactulose exposure among bacteremia” value (bacteremia; N = 19) is reported as “(32%)” and the “Samples with lactulose exposure among no bacteremia” value (bacteremia; N = 227) is reported as “(65%)”. For the same compound, the “Regression estimate, association with Enterococcus abundance” value (Enterococcus) was 0.11, the “Regression estimate, association with Enterococcus abundance” value (Enterococcus; listed as lactulose) was “positively associates” and the “Enterococcus abundance, mean” value (Enterococcus; [2]) was 19.4%. For the same compound, the “Enterococcus abundance, median” value (Enterococcus; [2]) was 0.9%, the “Enterococcus abundance, range” value (Enterococcus; [2]) was 0.0-100% and the Stool water content (B. longum; GF mice, 20 g/L lactulose in water) was “increased”. For the same compound, the Fecal acetate concentration (B. longum; [3]) was “elevated”, the “Fecal conjugated BA concentrations” value (B. longum; [3]) was “reduced” and the “Fecal unconjugated primary BA concentrations” value (B. longum; [3]) was “elevated”. For the same compound, the Lactulose in stool (B. longum; mouse, in vivo) was “detectable”, the “Regression estimate, association with Bifidobacteria abundance” value (Bifidobacteria) was 0.17 and the “Regression estimate, association with Bifidobacteria abundance” value (Bifidobacteria; listed as lactulose) was “positively associates”. The “Bifidobacteria abundance, mean” value (Bifidobacteria; [4]) was 22.2%, the “Bifidobacteria abundance, range” value (Bifidobacteria; [4]) was 0.0-94.7% and the “Fecal samples having ≥10% Bifidobacteria abundance” value (Bifidobacteria; lactulose within 7 days prior to sample collection, one sample per patient) was 45.2%. For the same compound, the Bifidobacteria density (Bifidobacteria; patients without antibiotics in the preceding 7 days, lactulose-treated vs not) was “significantly increased”.
